Three compounds from ChEMBL document CHEMBL3045109, “Inhibitory effect of bionic fungicide 2-allylphenol on Botrytis cinerea (Pers. ex Fr.) in vitro” (Pest Manag Sci, 2009) can be followed below.

In brackets after ≈: the same amount, converted by molar mass. Activity calls are given as the source filed them. The calls are words filed in the database; no cut-off is given here.

Assay [1] deals with Botrytis cinerea. Description: Fungicidal activity against Botryotinia fuckeliana grown on PDA medium assessed as inhibition of mycelial growth incubated for 4 to 7 days at 25 degC in presence of 10 mg/L mitochondrial alternative oxidase inhibitor, SHAM. It counts as functional, organism-based.
Assay [2] has as its system Botrytis cinerea. Description: Fungicidal activity against Botryotinia fuckeliana grown on YgA medium assessed as inhibition of mycelial growth incubated for 4 days in the dark at 25 degC in presence of fermentable carbon source, glucose. It counts as functional, organism-based. The conditions noted are these: 96 h.
Assay [3] deals with Botrytis cinerea. Description: Fungicidal activity against Botryotinia fuckeliana grown on YGA medium assessed as inhibition of mycelial growth incubated for 4 days in the dark at 25 degC in presence of non-fermentable carbon source, glycerol. In kind it is functional, organism-based. The conditions noted are these: 96 h.
In assay [4] the test system is Botrytis cinerea. Description: Depletion of ATP content in Botryotinia fuckeliana mycelium at 80 mg/L after 24 to 48 hr by reverse phase HPLC analysis. In kind it is functional, organism-based.
In assay [5] the test system is Botrytis cinerea. Description: Depletion of ATP content in Botryotinia fuckeliana mycelium at 80 mg/L after 6 hr by reverse phase HPLC analysis. It counts as functional.
In assay [6] the test system is Botrytis cinerea. In words: Inhibition of respiratory activity in Botryotinia fuckeliana mycelium assessed as rate of oxygen consumption at 100 mg/L by Clark-type oxygen electrode recording analysis in presence of succinate and 2 mM mitochondrial alternative oxidase inhibitor, SHAM. In kind it is functional.
The test system of assay [7] is Botrytis cinerea. Description: Inhibition of respiratory activity in Botryotinia fuckeliana mycelium assessed as rate of oxygen consumption at 100 mg/L by Clark-type oxygen electrode recording analysis in presence of glucose and 2 mM mitochondrial alternative oxidase inhibitor, SHAM. It counts as functional.
The test system of assay [8] is Botrytis cinerea. In words: Fungistatic activity against Botryotinia fuckeliana grown in liquid medium assessed as increase in mycelium dry weight at 80 mg/L incubated for 24 hr prior to transferring mycelium to drug-free MYS medium measured after 12 hr. In kind it is functional.
Assay [9] relates to Botrytis cinerea. Description: Fungistatic activity against Botryotinia fuckeliana grown in liquid medium assessed as increase in mycelium dry weight at 80 mg/L incubated for 24 hr prior to transferring mycelium to drug-free MYS medium measured after 6 hr. It counts as functional.
Assay [10] concerns Botrytis cinerea. In words: Fungicidal activity against Botryotinia fuckeliana grown in liquid medium assessed as inhibition of mycelial growth at 80 mg/L after 12 hr. In kind it is functional, organism-based.
The test system of assay [11] is Botrytis cinerea. Description: Fungicidal activity against Botryotinia fuckeliana grown in liquid medium assessed as inhibition of mycelial growth after 24 hr. It counts as functional, organism-based.
The subject of assay [12] is Botrytis cinerea. Description: Depletion of total adenylate pool in Botryotinia fuckeliana mycelium at 80 mg/L after 24 to 48 hr by reverse phase HPLC analysis. In kind it is functional, organism-based.
For assay [13], the system named is Botrytis cinerea. Description: Inhibition of respiratory activity in Botryotinia fuckeliana mycelium assessed as decrease in rate of oxygen consumption at 100 mg/L by Clark-type oxygen electrode recording analysis in presence of succinate (reference value: 0%). In kind it is functional.
Assay [14] relates to Botrytis cinerea. Description: Inhibition of respiratory activity in Botryotinia fuckeliana mycelium assessed as decrease in rate of oxygen consumption at 100 mg/L by Clark-type oxygen electrode recording analysis in presence of glucose (reference value: 0%). It counts as functional.
Assay [15] concerns Botrytis cinerea. In words: Induction of respiratory activity in Botryotinia fuckeliana mycelium assessed as rate of oxygen consumption at 10 mg/L after 2 min by Clark-type oxygen electrode recording analysis. In kind it is functional.
For assay [16], the system named is Botrytis cinerea. In words: Inhibition of respiratory activity in Botryotinia fuckeliana mycelium assessed as rate of oxygen consumption at 100 mg/L after 2 min by Clark-type oxygen electrode recording analysis. It counts as functional.
Assay [17] relates to Botrytis cinerea. Description: Inhibition of respiratory activity in Botryotinia fuckeliana mycelium assessed as decrease in rate of oxygen consumption at 20 uM by Clark-type oxygen electrode recording analysis in presence of succinate and 2 mM mitochondrial alternative oxidase inhibitor, SHAM (reference value: 0%). In kind it is functional.
In assay [18] the test system is Botrytis cinerea. In words: Inhibition of respiratory activity in Botryotinia fuckeliana mycelium assessed as decrease in rate of oxygen consumption at 20 uM by Clark-type oxygen electrode recording analysis in presence of glucose and 2 mM mitochondrial alternative oxidase inhibitor, SHAM (reference value: 0%). It counts as functional.
Assay [19] concerns Botrytis cinerea. Description: Inhibition of respiratory activity in Botryotinia fuckeliana mycelium assessed as decrease in rate of oxygen consumption at 20 uM by Clark-type oxygen electrode recording analysis in presence of succinate (reference value: 0%). In kind it is functional.
The test system of assay [20] is Botrytis cinerea. In words: Inhibition of respiratory activity in Botryotinia fuckeliana mycelium assessed as decrease in rate of oxygen consumption at 20 uM by Clark-type oxygen electrode recording analysis in presence of glucose (reference value: 0%). In kind it is functional.
Assay [21] deals with Botrytis cinerea. Description: Inhibition of respiratory activity in Botryotinia fuckeliana mycelium assessed as decrease in rate of oxygen consumption at 2 mM by Clark-type oxygen electrode recording analysis in presence of succinate (reference value: 0%). It counts as functional.
Assay [22] relates to Botrytis cinerea. In words: Inhibition of respiratory activity in Botryotinia fuckeliana mycelium assessed as decrease in rate of oxygen consumption at 2 mM by Clark-type oxygen electrode recording analysis in presence of glucose (reference value: 0%). It counts as functional.

In the case of `C=CCc1ccccc1O` [2-ALLYLPHENOL], the “growth inhibition (GI)” value in [1] is “Active”. In addition, the EC50 in [2] is 22.9 µg/mL; in assay [3], 7.1 µg/mL; in assay [11], 25.4 µg/mL (≈ 189 µM). The inhibition result in assay [4], in [10] and in assay [12] was “Active” each time. Besides, at 80 µg/mL the inhibition in assay [5] was 70%. Further, the “inhibition (INH)” value in assay [6] and in [7] was 100% in each case. Moreover, the results for the “fold change (FC)” value in [8] and in assay [9] were 1.7 and 0.9, respectively. The inhibition at 100 µg/mL was found to be 48% in [13], 46% in assay [14] and 60% in assay [16]. In [15], the Activity is listed as 30%.
As for `CCCCCC[C@H]1C(=O)O[C@H](C)[C@H](NC(=O)c2cccc(NC=O)c2O)C(=O)O[C@@H](C)[C@@H]1OC(=O)CC(C)C` [ANTIMYCIN A], the “inhibition (INH)” value in assay [17] and in assay [18] was 100% in each case. For the same compound, the inhibition at 20 µM worked out at 55% in [19] and 77% in assay [20].
For the compound `O=C(NO)c1ccccc1O` [SALICYLHYDROXAMIC ACID], the inhibition at 2000 µM in assay [21] came out at 32%; in [22], 45%.

What is called EC50 is the concentration at which the effect is half-maximal. What is called inhibition is the relative decrease from the control value, in per cent.
